Experimental data taken from patent US20040253192A1, “Breath Freshening and Oral Cleansing Product Using Cardamom Oil” (priority 2002, published 2004).

Legend:
Type in all cases: cell-based
Fusobacterium nucleatum [1] = assay: MIC (minimum inhibitory concentration) study, 96 well microtiter plates; settings: F. nucleatum, 48 hours at 37° C., turbidity at 660 nm
Description: (§1) In vitro tests were conducted with a gram positive supragingival plaque bacterium, Streptococcus mutans. In addition, two subgingival plaque bacteria associated with oral malodor were tested, Porphyromonas gingivalis and Fusobacterium nucleatum. The MIC (Minimum Inhibitory Concentrations) study protocol is as follows. Chlorhexidine was used as a positive control and sterile water was used as a negative control. Cardamom oil was suspended in 10% methanol with 3.8% Tween 80. […] 96 well microtiter plates were used for this study. Each well contained 5×10^5 colony forming units/ml of bacteria, serially diluted agents and bacterial growth medium. All bacterial cultures were incubated at 37° C. and stationary. Bacterial growth was estimated spectrophotometrically at 660 nm, after 48 hours. The MIC for each test bacteria was defined as the minimum concentration of test compound limiting turbidity to […].

Porphyromonas gingivalis [2] = assay: as above; settings: P. gingivalis, 48 hours at 37° C., turbidity at 660 nm
Description: as §1

Fusobacterium nucleatum [3] = assay: MBC (minimum bactericidal concentration) determination, plating on blood agar; settings: F. nucleatum, lowest concentration killing at least 99.9% of initial inoculum, plates 48 hours at 37° C.
Description: (§2) The MBC (Minimum bactericidal concentrations) were determined using the 96 well microtiter plate serial dilutions as described above for MIC studies. Serial dilution of cultures in wells showing no visible growth were performed and 10 microliters of culture were plated in triplicate on blood agar plates. Viable colonies were scored after incubation of the plates for 48 hours at 37° C. For each test bacterium, the number of CFU/ml were determined in the initial inoculum. The MBC was defined as the lowest concentration of a test compound that killed at least 99.9% of the cells present in the initial inoculum.

Porphyromonas gingivalis [4] = assay: as above; settings: P. gingivalis, lowest concentration killing at least 99.9% of initial inoculum, plates 48 hours at 37° C.
Description: as §2

[H]/N=C(\N/C(=N/[H])NCCCCCCNC(=N)NC(=N)Nc1ccc(Cl)cc1)Nc1ccc(Cl)cc1 [Cholorhexidine, Chlorhexidine]
1.25 mg/L: MIC (Fusobacterium nucleatum [1]) | MIC (Porphyromonas gingivalis [2]) | MBC (Fusobacterium nucleatum [3]) | MBC (Porphyromonas gingivalis [4])
